Where two headings read alike, the source gives them in different places.
Assays:
Format in all cases: cell-based
Sclerotinia sclerotiorum = assay: Plate medium fungicidal assay, Sclerotinia rot S.s (Experimental Example 5); conditions: for inhibition at 5 µg/mL / inhibition at 50 µg/mL: Sclerotinia sclerotiorum
Method: (§1) In this Experimental Example, the fungicidal effects of the inventive compounds on various phytopathogenic fungi for plants and hazardous microorganism for industrial materials were examined by the methods described below. Each inventive compound was dissolved in 2 ml of dimethyl sulfoxide. 0.6 ml of this solution was added to 60 nil of a PDA medium (potato dextrose agar medium) at about 60 degrees C., which was mixed thoroughly in a 100-ml conical flask, and poured into a dish, where it was solidified, thereby obtaining a plate medium containing the inventive compound at 50 mg/L and 5 mg/L. On the other hand, a subject microorganism previously cultured on a plate medium was cut out using a cork borer whose diameter was 4 mm, and inoculated to the test compound-containing plate medium described above. […] The growth degree of the microorganism on the test compound-containing plate medium thus observed was compared with the growth degree of the microorganism in the untreated group, and % mycelial growth inhibition was calculated by the following equation. R=100(dc−dt)/dc wherein R=% mycelial extension inhibition, dc=flora diameter in untreated plate, dt=flora diameter in treated plate. The results obtained as described above were evaluated as one of the 5 grades according to the following criteria. […] Sclerotinia rot (Sclerotinia sclerotiorum) S.s

Rhynchosporium secalis = assay: Plate medium fungicidal assay, barley leaf blotch R.sec (Experimental Example 5); conditions: for inhibition at 5 µg/mL / inhibition at 50 µg/mL: Rhynchosporium secalis
Method: as §1, with “Barley leaf blotch (Rhynchosporium secalis) R.sec” for “Sclerotinia rot (Sclerotinia sclerotiorum) S.s”

Phaeosphaeria nodorum = assay: Plate medium fungicidal assay, wheat Septoria nodorum blotch P.n (Experimental Example 5); conditions: for inhibition at 5 µg/mL / inhibition at 50 µg/mL: Parastagonospora nodorum
Method: as §1, with “Wheat Septoria nodorum blotch (Phaeosphaeria nodorum) P.n” for “Sclerotinia rot (Sclerotinia sclerotiorum) S.s”

Pyricularia oryzae = assay: microbe, parasite or virus in culture; conditions: for inhibition at 5 µg/mL / inhibition at 50 µg/mL: Pyricularia oryzae
Giberella fujikuroi = assay: Plate medium fungicidal assay, rice bakanae disease G.f (Experimental Example 5)
Method: as §1, with “Rice bakanae disease (Giberella fujikuroi) G.f” for “Sclerotinia rot (Sclerotinia sclerotiorum) S.s”

[1] = test system: Pseudocercoporella herpotrichoides; assay: Plate medium fungicidal assay, wheat eye spot P.h (Experimental Example 5)
Method: as §1, with “Wheat eye spot (Pseudocercoporella herpotrichoides) P.h” for “Sclerotinia rot (Sclerotinia sclerotiorum) S.s”

[2] = plate medium containing compound at 5 mg/L
[3] = plate medium containing compound at 50 mg/L
[4] = read-out: Growth inhibition grade, P.o
[5] = plate medium, 5 mg/L, read-out: growth inhibition grade S.s
[6] = plate medium, 50 mg/L, read-out: growth inhibition grade S.s
[7] = plate medium, 5 mg/L, read-out: growth inhibition grade R.sec
[8] = plate medium, 50 mg/L, read-out: growth inhibition grade R.sec
[9] = plate medium, 5 mg/L, read-out: growth inhibition grade P.n
[10] = plate medium, 50 mg/L, read-out: growth inhibition grade P.n
[11] = read-out: growth inhibition grade P.o
[12] = plate medium, 5 mg/L, read-out: growth inhibition grade G.f
[13] = plate medium, 50 mg/L, read-out: growth inhibition grade G.f
[14] = plate medium, 5 mg/L, read-out: growth inhibition grade P.h
[15] = plate medium, 50 mg/L, read-out: growth inhibition grade P.h

C[C@@]1(CCl)CC[C@@H](Cc2ccc(Cl)cc2)[C@]1(O)Cn1cncn1 (racemic) [Compound I-101]
Growth inhibition grade, S.s (Sclerotinia sclerotiorum; [2]): 5 (% Mycerial growth inhibition of 80% or higher) | Growth inhibition grade, S.s (Sclerotinia sclerotiorum; [3]): 5 (% Mycerial growth inhibition of 80% or higher) | Growth inhibition grade, R.sec (Rhynchosporium secalis; [2]): 5 (% Mycerial growth inhibition of 80% or higher) | Growth inhibition grade, R.sec (Rhynchosporium secalis; [3]): 5 (% Mycerial growth inhibition of 80% or higher) | Growth inhibition grade, P.n (Phaeosphaeria nodorum; [2]): 5 (% Mycerial growth inhibition of 80% or higher) | Growth inhibition grade, P.n (Phaeosphaeria nodorum; [3]): 5 (% Mycerial growth inhibition of 80% or higher) | Growth inhibition grade, P.o (Pyricularia oryzae; [2]): 5 (% Mycerial growth inhibition of 80% or higher) | Growth inhibition grade, P.o (Pyricularia oryzae; [3]): 5 (% Mycerial growth inhibition of 80% or higher) | Growth inhibition grade, G.f (Giberella fujikuroi; [2]): 5 (% Mycerial growth inhibition of 80% or higher) | Growth inhibition grade, G.f (Giberella fujikuroi; [3]): 5 (% Mycerial growth inhibition of 80% or higher) | Growth inhibition grade, P.h [1, 2]: 5 (% Mycerial growth inhibition of 80% or higher) | Growth inhibition grade, P.h [1, 3]: 5 (% Mycerial growth inhibition of 80% or higher)

CC[C@]1(CCl)CC[C@@H](Cc2ccc(Cl)cc2)[C@]1(O)Cn1cncn1 (racemic) [Compound I-36, (1RS,2SR,5SR)-5-(4-chlorobenzyl)-2-chloromethyl-2-ethyl-1-(1H-1,2,4-triazol-1-ylmethyl)cyclopentanol]
inhibition at 5 µg/mL (Sclerotinia sclerotiorum; plate medium containing compound at 5 mg/L, read-out: Growth inhibition grade, S.s): > 80% | inhibition at 50 µg/mL (Sclerotinia sclerotiorum; plate medium containing compound at 50 mg/L, read-out: Growth inhibition grade, S.s): > 80% | inhibition at 5 µg/mL (Rhynchosporium secalis; plate medium containing compound at 5 mg/L, read-out: Growth inhibition grade, R.sec): > 80% | inhibition at 50 µg/mL (Rhynchosporium secalis; plate medium containing compound at 50 mg/L, read-out: Growth inhibition grade, R.sec): > 80% | inhibition at 5 µg/mL (Phaeosphaeria nodorum; plate medium containing compound at 5 mg/L, read-out: Growth inhibition grade, P.n): > 80% | inhibition at 50 µg/mL (Phaeosphaeria nodorum; plate medium containing compound at 50 mg/L, read-out: Growth inhibition grade, P.n): > 80% | inhibition at 5 µg/mL (Pyricularia oryzae; [4]): > 80% | inhibition at 50 µg/mL (Pyricularia oryzae; [4]): > 80% | inhibition at 5 µg/mL (Giberella fujikuroi; plate medium containing compound at 5 mg/L, read-out: Growth inhibition grade, G.f): > 80% | inhibition at 50 µg/mL (Giberella fujikuroi; plate medium containing compound at 50 mg/L, read-out: Growth inhibition grade, G.f): > 80% | inhibition at 5 µg/mL ([1]; plate medium containing compound at 5 mg/L, read-out: Growth inhibition grade, P.h): > 80% | inhibition at 50 µg/mL ([1]; plate medium containing compound at 50 mg/L, read-out: Growth inhibition grade, P.h): > 80%

C[C@]1(CCl)CC[C@@H](Cc2ccc(Cl)cc2)[C@]1(O)Cn1ccnc1 (racemic) [Compound I-244, (1RS,2SR,5SR)-5-(4-chlorobenzyl)-2-chloromethyl-2-methyl-1-imidazol-1-ylmethylcyclopentanol]
inhibition at 5 µg/mL (Sclerotinia sclerotiorum; [5]): > 80% | inhibition at 50 µg/mL (Sclerotinia sclerotiorum; [6]): > 80% | inhibition at 5 µg/mL (Rhynchosporium secalis; [7]): > 80% | inhibition at 50 µg/mL (Rhynchosporium secalis; [8]): > 80% | inhibition at 5 µg/mL (Phaeosphaeria nodorum; [9]): > 80% | inhibition at 50 µg/mL (Phaeosphaeria nodorum; [10]): > 80% | inhibition at 5 µg/mL (Pyricularia oryzae; [11]): > 80% | inhibition at 50 µg/mL (Pyricularia oryzae; [11]): > 80% | inhibition at 5 µg/mL (Giberella fujikuroi; [12]): > 80% | inhibition at 50 µg/mL (Giberella fujikuroi; [13]): > 80% | inhibition at 5 µg/mL [1, 14]: > 80% | inhibition at 50 µg/mL [1, 15]: > 80%

C[C@@]1(CCl)CC[C@H](Cc2ccc(Cl)cc2)[C@]1(O)Cn1cncn1 (racemic) [Compound I-401, (1RS,2RS,5RS)-5-(4-chlorobenzyl)-2-chloromethyl-2-methyl-1-[1,2,4]triazol-1-ylmethylcyclopentanol]
inhibition at 5 µg/mL (Sclerotinia sclerotiorum; [5]): > 80% | inhibition at 50 µg/mL (Sclerotinia sclerotiorum; [6]): > 80% | inhibition at 5 µg/mL (Rhynchosporium secalis; [7]): > 80% | inhibition at 50 µg/mL (Rhynchosporium secalis; [8]): > 80% | inhibition at 5 µg/mL (Phaeosphaeria nodorum; [9]): > 80% | inhibition at 50 µg/mL (Phaeosphaeria nodorum; [10]): > 80% | inhibition at 5 µg/mL (Pyricularia oryzae; [11]): > 80% | inhibition at 50 µg/mL (Pyricularia oryzae; [11]): > 80% | inhibition at 5 µg/mL (Giberella fujikuroi; [12]): > 80% | inhibition at 50 µg/mL (Giberella fujikuroi; [13]): > 80% | inhibition at 5 µg/mL [1, 14]: > 80% | inhibition at 50 µg/mL [1, 15]: > 80%

C[C@]1(CBr)CC[C@@H](Cc2ccc(F)cc2)[C@]1(O)Cn1cncn1 (racemic) [Compound I-601, (1RS,2SR,5SR)-2-bromomethyl-5-(4-fluorobenzyl)-2-methyl-1-(1H-1,2,4-triazol-1-ylmethyl)cyclopentanol]
inhibition at 5 µg/mL (Sclerotinia sclerotiorum; [5]): > 80% | inhibition at 50 µg/mL (Sclerotinia sclerotiorum; [6]): > 80% | inhibition at 5 µg/mL (Rhynchosporium secalis; [7]): > 80% | inhibition at 50 µg/mL (Rhynchosporium secalis; [8]): > 80% | inhibition at 5 µg/mL (Phaeosphaeria nodorum; [9]): 60 to 80% | inhibition at 50 µg/mL (Phaeosphaeria nodorum; [10]): > 80% | inhibition at 5 µg/mL (Pyricularia oryzae; [11]): > 80% | inhibition at 50 µg/mL (Pyricularia oryzae; [11]): > 80% | inhibition at 5 µg/mL (Giberella fujikuroi; [12]): > 80% | inhibition at 50 µg/mL (Giberella fujikuroi; [13]): > 80% | inhibition at 5 µg/mL [1, 14]: 60 to 80% | inhibition at 50 µg/mL [1, 15]: > 80%

C[C@]1(CCl)CC[C@H](Cc2cccc(Cl)c2)[C@]1(O)Cn1cncn1 (relative stereo) [Compound I-374]
Growth inhibition grade, S.s (Sclerotinia sclerotiorum; plate medium, 5 mg/L): 5 (% Mycerial growth inhibition of 80% or higher) | Growth inhibition grade, S.s (Sclerotinia sclerotiorum; plate medium, 50 mg/L): 5 (% Mycerial growth inhibition of 80% or higher) | Growth inhibition grade, R.sec (Rhynchosporium secalis; plate medium, 5 mg/L): 5 (% Mycerial growth inhibition of 80% or higher) | Growth inhibition grade, R.sec (Rhynchosporium secalis; plate medium, 50 mg/L): 5 (% Mycerial growth inhibition of 80% or higher) | Growth inhibition grade, P.n (Phaeosphaeria nodorum; plate medium, 5 mg/L): 5 (% Mycerial growth inhibition of 80% or higher) | Growth inhibition grade, P.n (Phaeosphaeria nodorum; plate medium, 50 mg/L): 5 (% Mycerial growth inhibition of 80% or higher) | Growth inhibition grade, P.o (Pyricularia oryzae; plate medium, 5 mg/L): 5 (% Mycerial growth inhibition of 80% or higher) | Growth inhibition grade, P.o (Pyricularia oryzae; plate medium, 50 mg/L): 5 (% Mycerial growth inhibition of 80% or higher) | Growth inhibition grade, G.f (Giberella fujikuroi; plate medium, 5 mg/L): 5 (% Mycerial growth inhibition of 80% or higher) | Growth inhibition grade, G.f (Giberella fujikuroi; plate medium, 50 mg/L): 5 (% Mycerial growth inhibition of 80% or higher) | Growth inhibition grade, P.h ([1]; plate medium, 5 mg/L): 5 (% Mycerial growth inhibition of 80% or higher) | Growth inhibition grade, P.h ([1]; plate medium, 50 mg/L): 5 (% Mycerial growth inhibition of 80% or higher)

Source: patent US9145351B2, “Azole derivatives, methods for producing the same, intermediate thereof, agro-horticultural agents” (KUREHA CORPORATION, priority 2009, dated 2015)
